Measurements taken from patent publication EP4516309A1, “CRHR1 AGONISTS FOR USE IN THE TREATMENT OF SOCIAL ANXIETY DISORDERS” (Consejo Superior de Investigaciones Cientificas, priority 2023, dated 2025).

Target: T1, excitatory DREADD (Homo sapiens, UniProt P20309, A239G/Y149C)
T1 construct: host or cells: ILA CRH+ neurons of CRH-Cre mice, Cre-dependent AAV2/5 transduction in vivo
Experiment: c-fos / mCherry overlap in ILA after familiar animal presentation, excitatory DREADD
Format: in vivo, CRH-Cre mice
Details: CNO i.p. 30 min before familiar animal presentation; vs. saline
Method: Mice were anesthetized using isoflurane then perfused in the heart with 10 mL saline and their brains were quickly extracted and incubated in 4% PFA overnight. After 1 h washing in PBS, 60 µm slices were prepared using a Leica VT1000S vibratome (Leica Biosystems). Unless indicated otherwise, slices were permeabilized for 2h in PBS with 0.5% Triton-X100 (T9284, Sigma-Aldrich) in PBS before being incubated overnight at 4°C with primary antibodies diluted in PBS with 0.5% Triton-X in PBS. The slices were washed in PBS for 1 h then incubated overnight at 4°C with secondary antibodies from Thermo-Fisher Scientific at a concentration of 1:500 diluted in PBS with 0.1% Triton-X. Hoechst counterstain was applied (Hoechst 33342 at 1:1000 for 30 min in PBS at RT) prior to mounting the slice using fluoromount (Sigma-Aldrich). Images were acquired using inverted confocal microscopes (Ism 900, Zeiss and SPII, Leica) or an epifluorescent microscope (Thunder, Leica). For post-hoc immunocytochemistry after patch-clamp recordings, slices were fixed for 1 h in PBS with 4% PFA and streptavidin was applied during secondary incubation. • For mRuby and GFP labelling, primary incubation was performed overnight at 4°C with rabbit anti-RFP (1:500, Rockland Antibody, #600-401-379) and chicken anti-GFP (1:1000, Aves, #GFP-1020) antibodies. […]

T1 sequence (P20309 whole entry Y149C/A239G): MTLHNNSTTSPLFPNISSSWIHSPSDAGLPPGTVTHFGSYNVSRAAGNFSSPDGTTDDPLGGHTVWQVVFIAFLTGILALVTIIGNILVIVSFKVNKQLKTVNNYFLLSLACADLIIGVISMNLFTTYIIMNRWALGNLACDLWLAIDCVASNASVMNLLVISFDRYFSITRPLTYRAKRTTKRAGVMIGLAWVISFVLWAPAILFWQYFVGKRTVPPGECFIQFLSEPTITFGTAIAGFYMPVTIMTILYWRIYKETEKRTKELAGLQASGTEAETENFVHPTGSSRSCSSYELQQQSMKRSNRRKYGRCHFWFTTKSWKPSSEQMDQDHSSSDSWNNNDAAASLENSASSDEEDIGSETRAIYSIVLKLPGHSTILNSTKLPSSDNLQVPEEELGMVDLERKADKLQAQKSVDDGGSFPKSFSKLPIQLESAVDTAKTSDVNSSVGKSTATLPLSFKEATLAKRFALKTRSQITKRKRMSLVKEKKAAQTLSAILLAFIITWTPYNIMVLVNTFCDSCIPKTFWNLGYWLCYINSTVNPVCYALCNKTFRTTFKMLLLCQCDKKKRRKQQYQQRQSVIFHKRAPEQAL

C[N+]1([O-])CCN(C2=Nc3cc(Cl)ccc3Nc3ccccc32)CC1 [CNO, clozapine N-oxide]
c-fos/mCherry+ overlap in ILA: increased c-fos/mCherry+ overlap
